Target: T1, human OX2 receptor (Homo sapiens, UniProt O43614)
T1 construct: expressed in transfected cells
T1 sequence (O43614 1-444): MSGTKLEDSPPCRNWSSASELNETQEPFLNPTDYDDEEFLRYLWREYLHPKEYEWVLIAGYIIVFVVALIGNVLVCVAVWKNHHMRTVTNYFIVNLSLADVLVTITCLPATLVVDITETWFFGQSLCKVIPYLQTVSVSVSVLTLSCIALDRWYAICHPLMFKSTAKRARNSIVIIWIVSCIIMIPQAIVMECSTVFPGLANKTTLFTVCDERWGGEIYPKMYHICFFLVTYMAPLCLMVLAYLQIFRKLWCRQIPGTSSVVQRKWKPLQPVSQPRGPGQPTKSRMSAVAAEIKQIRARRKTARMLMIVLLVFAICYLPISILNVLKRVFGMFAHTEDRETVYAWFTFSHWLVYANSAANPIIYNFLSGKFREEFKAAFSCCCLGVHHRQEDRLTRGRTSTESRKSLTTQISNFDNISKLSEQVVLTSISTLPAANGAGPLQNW
Experiment: Measurement of orexin type 2 receptor agonist activity (calcium fluorescence, Fluo-4, FDSS)
Type: cell-based
Conditions: 3 uM test compound; CHO cells expressing human OX2 receptor; DMSO = 0%, 10 nM orexin A (human) = 100%
Description: In order to obtain cell clones that stably express human orexin type 2 receptor, human orexin type 2 (residues 1-444, NCBI Reference Sequence: AK314279) was constructed in a pcDNA3.1 (+) vector (Invitrogen) to express in mammalian cells. This plasmid DNA was transfected into CHO-K1 cells by electroporation, and stable clones were obtained by limiting dilution using resistance to G418 as a selection marker.
CHO cells in which human OX2 receptor was forcibly expressed were seeded at 10,000 cells/well into a 384-well black transparent bottom plate (BD falcon), and were incubated at 37° C., 5% CO2 for 1 day after incubation at room temperature for 30 minutes. After removing the cell plate medium, assay buffer containing calcium indicator A (HBSS (Thermo Fisher Scientific), 20 mM HEPES (Thermo Fisher Scientific), 0.1% BSA (Sigma-Aldrich), 2.5 μg/mL Fluo-4 AM (Dojin Kagaku), 0.08% Pluronic F127 (Dojin Kagaku), 1.25 mM probenecid (Dojin Kagaku)) was added at 30 μL/well. After incubation in a 5% CO2 incubator at 37° C. for 30 minutes, it was incubated at room temperature for another 30 minutes. Add 10 μL/well of the test compound diluted with assay buffer B (HBSS, 20 mM HEPES, 0.1% BSA), and use FDSS μCELL (Hamamatsu Photonics) to measure the fluorescence value every 1 second for 1 minute, and then every 2 seconds for 1 minute. It was measured for 1 minute and 40 seconds. The amount of fluorescence value when DMSO is added instead of the test compound is defined as 0%, and the amount of fluorescence value when orexin A (human) (Peptide Institute) with a final concentration of 10 nM is added is defined as 100%. The activity (%) of the test compound was calculated.

| SMILES | OX2R agonist activity (3 uM, %) [%] |
| --- | --- |
| COCc1cc(-c2c(F)cccc2F)c2c(-n3cc4n(c3=O)C[C@@H](NS(C)(=O)=O)C4(F)F)noc2c1 [Example 132, N-{(6R)-2-[4-(2,6-difluorophenyl)-6-(methoxymethyl)-1,2-benzoxazol-3-yl]-7,7-difluoro-3-oxo-2,5,6,7-tetrahydro-3H-pyrrolo[1,2-c]imidazol-6-yl}methanesulfonamide] | 94 |
| COCS(=O)(=O)N[C@H]1C[C@H]2CN(c3noc4cccc(-c5c(F)cccc5F)c34)C(=O)N2C1 [Example 20, N-{(6S,7aS)-2-[4-(2,6-difluorophenyl)-1,2-benzoxazol-3-yl]-3-oxohexahydro-1H-pyrrolo[1,2-c]imidazol-6-yl}-1-methoxymethanesulfonamide] | 97 |
| CCS(=O)(=O)NC1Cn2c(cn(-c3noc4cc(F)cc(-c5c(F)cc(F)cc5F)c34)c2=O)CC1(F)F (single isomer, unassigned) [Example 240, N-{(6R*)-7,7-difluoro-2-[6-fluoro-4-(2,4,6-trifluorophenyl)-1,2-benzoxazol-3-yl]-3-oxo-2,3,5,6,7,8-hexahydroimidazo[1,5-a]pyridin-6-yl}ethanesulfonamide] | 106 |
| CCS(=O)(=O)NC1Cn2c(cn(-c3noc4cccc(-c5c(F)cccc5F)c34)c2=O)CC1(F)F (single isomer, unassigned) [Example 181, N-{(6R*)-2-[4-(2,6-difluorophenyl)-1,2-benzoxazol-3-yl]-7,7-difluoro-3-oxo-2,3,5,6,7,8-hexahydroimidazo[1,5-a]pyridin-6-yl}ethanesulfonamide] | 105 |
| CS(=O)(=O)NC1Cn2c(cn(-c3noc4cccc(-c5c(F)cccc5F)c34)c2=O)CC1(F)F (single isomer, unassigned) [Example 117, N-{(6R*)-2-[4-(2,6-difluorophenyl)-1,2-benzoxazol-3-yl]-7,7-difluoro-3-oxo-2,3,5,6,7,8-hexahydroimidazo[1,5-a]pyridin-6-yl}methanesulfonamide] | 97 |
| CCS(=O)(=O)NC1CN2C(=O)N(c3noc4cccc(-c5c(F)cccc5F)c34)C[C@@H]2C1C (stereo in doubt) [Example 158, N-{(6R*,7R*,7aS)-2-[4-(2,6-difluorophenyl)-1,2-benzoxazol-3-yl]-7-methyl-3-oxohexahydro-1H-pyrrolo[1,2-c]imidazol-6-yl}ethanesulfonamide] | 103 |
| CCS(=O)(=O)N[C@@H]1Cn2c(cn(-c3noc4cc(C)nc(-c5c(F)cc(F)cc5F)c34)c2=O)C1(F)F [Example 198, N-{(6R)-7,7-difluoro-2-[6-methyl-4-(2,4,6-trifluorophenyl)[1,2]oxazolo[4,5-c]pyridin-3-yl]-3-oxo-2,5,6,7-tetrahydro-3H-pyrrolo[1,2-c]imidazol-6-yl}ethanesulfonamide] | 112 |
| CCS(=O)(=O)N[C@H]1Cc2cn(-c3nsc4nc(C)cc(-c5c(F)cccc5F)c34)c(=O)n2C1 [Example 152, N-{(6S)-2-[4-(2,6-difluorophenyl)-6-methyl[1,2]thiazolo[5,4-b]pyridin-3-yl]-3-oxo-2,5,6,7-tetrahydro-3H-pyrrolo[1,2-c]imidazol-6-yl}ethanesulfonamide] | 92 |

Other lines, results leading:

| OX2R agonist activity (3 uM, %) [%] | SMILES |
| --- | --- |
| 98 | CS(=O)(=O)N[C@@H]1Cn2c(cn(-c3noc4cc(CO)cc(-c5c(F)cc(F)cc5F)c34)c2=O)C1(F)F [Example 128, N-{(6R)-7,7-difluoro-2-[6-(hydroxymethyl)-4-(2,4,6-trifluorophenyl)-1,2-benzoxazol-3-yl]-3-oxo-2,5,6,7-tetrahydro-3H-pyrrolo[1,2-c]imidazol-6-yl}methanesulfonamide] |
| 113 | CS(=O)(=O)N[C@@H]1CN2C(=O)N(c3noc4cc(F)cc(-c5ncc(F)cc5F)c34)CC[C@@H]2C1(F)F [Example 295, N-{(4aR,6R)-2-[4-(3,5-difluoropyridin-2-yl)-6-fluoro-1,2-benzoxazol-3-yl]-5,5-difluoro-1-oxooctahydropyrrolo[1,2-c]pyrimidin-6-yl}methanesulfonamide] |
| 103 | Cc1cc2onc(-n3cc4n(c3=O)C[C@@H](NS(=O)(=O)C3CC3)C4(F)F)c2c(-c2c(F)cc(F)cc2F)n1 [Example 219, N-{(6R)-7,7-difluoro-2-[6-methyl-4-(2,4,6-trifluorophenyl)[1,2]oxazolo[4,5-c]pyridin-3-yl]-3-oxo-2,5,6,7-tetrahydro-3H-pyrrolo[1,2-c]imidazol-6-yl}cyclopropanesulfonamide] |
| 107 | O=C1N(c2noc3cc(F)cc(-c4c(F)cc(F)cc4F)c23)CC[C@H]2N1C[C@@H](NS(=O)(=O)C1CC1)C2(F)F [Example 281, N-{(4aR,6R)-5,5-difluoro-2-[6-fluoro-4-(2,4,6-trifluorophenyl)-1,2-benzoxazol-3-yl]-1-oxooctahydropyrrolo[1,2-c]pyrimidin-6-yl}cyclopropanesulfonamide] |
| 100 | Cc1cc(-c2c(F)cc(F)cc2F)c2c(N3C[C@H]4N(C[C@@H](NS(C)(=O)=O)C4(F)F)C3=O)noc2c1 [Example 140, N-{(6R,7aR)-7,7-difluoro-2-[6-methyl-4-(2,4,6-trifluorophenyl)-1,2-benzoxazol-3-yl]-3-oxohexahydro-1H-pyrrolo[1,2-c]imidazol-6-yl}methanesulfonamide] |
| 111 | CCS(=O)(=O)N[C@@H]1CN2C(=O)N(c3noc4cccc(-c5ccccc5F)c34)CC[C@@H]2C1(F)F [Example 334, N-{(4aR,6R)-5,5-difluoro-2-[4-(2-fluorophenyl)-1,2-benzoxazol-3-yl]-1-oxooctahydropyrrolo[1,2-c]pyrimidin-6-yl}ethanesulfonamide] |
| 105 | CCOc1cc(-c2c(F)cccc2F)c2c(N3C[C@H]4N(C[C@@H](NS(C)(=O)=O)C4(F)F)C3=O)noc2c1 [Example 145, N-{(6R,7aR)-2-[4-(2,6-difluorophenyl)-6-ethoxy-1,2-benzoxazol-3-yl]-7,7-difluoro-3-oxohexahydro-1H-pyrrolo[1,2-c]imidazol-6-yl}methanesulfonamide] |
| 109 | CS(=O)(=O)N[C@H]1C[C@H]2CCN(c3noc4cc(C(F)(F)F)cc(-c5c(F)cccc5F)c34)C(=O)N2C1 [Example 251, N-{(4aR,6S)-2-[4-(2,6-difluorophenyl)-6-(trifluoromethyl)-1,2-benzoxazol-3-yl]-1-oxooctahydropyrrolo[1,2-c]pyrimidin-6-yl}methanesulfonamide] |
| 93 | CCS(=O)(=O)N[C@@H]1Cn2c(cn(-c3noc4cc(F)cc(-c5c(F)cc(F)cc5F)c34)c2=O)C1(F)F [Example 116, N-{(6R)-7,7-difluoro-2-[6-fluoro-4-(2,4,6-trifluorophenyl)-1,2-benzoxazol-3-yl]-3-oxo-2,5,6,7-tetrahydro-3H-pyrrolo[1,2-c]imidazol-6-yl}ethanesulfonamide] |
| 107 | O=C1N(c2noc3cccc(-c4ncc(F)cc4F)c23)CC[C@H]2N1C[C@@H](NS(=O)(=O)C1CC1)C2(F)F [Example 319, N-{(4aR,6R)-2-[4-(3,5-difluoropyridin-2-yl)-1,2-benzoxazol-3-yl]-5,5-difluoro-1-oxooctahydropyrrolo[1,2-c]pyrimidin-6-yl}cyclopropanesulfonamide] |
